How the values were obtained:
[1] = target: T1, CCR-3 (Homo sapiens, UniProt P51677); test: CCR-3 competition binding SPA ([125I]eotaxin); details: membranes from K562 cells stably expressing CCR-3; 20 pM [125I]eotaxin; mean of at least two experiments; read-out: pIC50 (inhibition of [125I]eotaxin binding) (converted)
T1 construct: expressed in transfected cells; membranes)
T1 sequence (P51677 1-355): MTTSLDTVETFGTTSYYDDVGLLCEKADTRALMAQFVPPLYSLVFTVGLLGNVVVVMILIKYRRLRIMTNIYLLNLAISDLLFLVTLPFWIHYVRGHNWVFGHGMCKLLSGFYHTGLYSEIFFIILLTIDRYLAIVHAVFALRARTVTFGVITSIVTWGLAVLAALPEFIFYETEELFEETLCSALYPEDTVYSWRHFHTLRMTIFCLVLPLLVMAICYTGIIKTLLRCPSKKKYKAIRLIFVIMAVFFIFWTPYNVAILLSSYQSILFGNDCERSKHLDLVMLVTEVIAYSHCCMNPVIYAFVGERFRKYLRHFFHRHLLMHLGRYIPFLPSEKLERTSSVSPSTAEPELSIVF
Experimental: A CCR-3 competition binding SPA (scintillation proximity assay) was used to assess the affinity of novel compounds for CCR-3. Membranes prepared from K562 cells stably expressing CCR-3 (2.5 μg/well) were mixed with 0.25 mg/well wheat-germ agglutinin SPA beads (Amersham) and incubated in binding buffer (HEPES 50 mM, CaCl2 1 mM, MgCl2 5 mM, 0.5% BSA) at 4° C. for 1.5 hr. Following incubation, 20 pM of [^125I] eotaxin (Amersham) and increasing concentrations of compound (1 pM to 30 μM) were added and incubated in a 96 well plate for 2 hr at 22° C. then counted on a Microbeta plate counter. The total assay volume was 100 μl. Competition binding data were analysed by fitting the data with a four parameter logistic equation. Data are presented as the mean pIC50 values (negative logarithm of the concentration of compound which inhibits [^125I]eotaxin binding by 50%) from at least two experiments.

[2] = target: eosinophils purified from human peripheral blood; test: Eosinophil chemotaxis assay (eotaxin-induced); type: cell-based; details: agonist eotaxin at EC80 concentration
Experimental: (b) Eosinophil Chemotaxis Assay.
The compound was evaluated for its inhibitory effect on eosinophil chemotaxis. Eosinophils were purified from human peripheral blood by standard CD16 cell depletion using a Miltenyi cell separation column and a magnetic Super Macs magnet as previously described (Motegi & Kita, 1998; J. Immunology. 161:4340-6). Cells were re-suspended in RPMI 1640/10% FCS solution and incubated with calcein-AM (Molecular Probes) at 37° C. for 30 mins. Following incubation, the eosinophils were centrifuged at 400 g for 5 min and re-suspended in RPMI/FCS at 2.2 million/ml. Cells were then incubated in the presence of increasing concentration of compounds (1 pM to 30 μM) at 37° C. for 30 mins. For control responses cells were incubated with RPMI/FCS only. The agonist eotaxin (an EC80 concentration) was added to the lower chamber of a 96 well chemotaxis plate (5 μm filter. Receptor Technologies). Eosinophils (50 μl of 2 million/ml cells) were added to the top chamber of the filter plate and incubated at 37° C. for 45 mins. Cells remaining on top of the chemotaxis filter were removed and the number of eosinophils which had migrated were quantified by reading the plate on a fluorescent plate reader. Inhibition curves for the effect of compounds on eosinophil chemotaxis were analysed by fitting the data with a four parameter logistic equation. […]

IC50 [1]: 10 nM | fpKi (functional pKi, eosinophil chemotaxis) [2]: 8.4
Structure (SMILES): CS(=O)(=O)Nc1cccc(CC(=O)NC[C@H]2CN(Cc3ccc(F)c(F)c3)CCO2)c1 [Example 1, N-{[(2S)-4-(3.4-difluorobenzyl)morpholin-2-yl]methyl}-2-{3-[(methylsulfonyl)amino]phenyl}acetamide]

— US20060058299A1, “N-2s-4-3,4-difluorobenzyl morpholin-2yl methyl -2-(3-methylsulphonyl amino!phenyl acetamide as ccr3 antagonist for the treatment of inflammatory conditions” (priority 2002, published 2006)
